# Values quoted from earlier work as cited in US20190000898A1, “COMBINING ADENOVIRUS AND CHEMOTHERAPEUTIC AGENTS FOR TREATING CANCER” (priority 2016, published 2019).
# Experiments:
# [1] = system: unresectable MPM; conditions: patients; p=0.02
# [2] = system: syngeneic pancreatic tumors; conditions: immune-competent hamsters
Structure (SMILES),median survival [1] [months],antitumor efficacy (tumor growth) [2]
N.N.[Cl][Pt][Cl] [Cisplatin],9,
O=P1(N(CCCl)CCCl)NCCCO1 (centres unmarked) [cyclophosphamide],,did not result in significant reduction of tumor growth
